One assay concerns the target T1, PDGF-Ra (Homo sapiens, UniProt P16234).
T1 construct: host or cells: G-292 human osteosarcoma cells
Put plainly: Inhibitory activity against PDGF-Ra phosphorylation by PDGF-AA stimulation using G292. Format: cell-based. The conditions noted are these: > means inhibition at indicated concentration not more than 50%, < and << not less than 50%; read-out: PDGF (E) IC50. In a few lines: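 Phospho-PDGF-Ra ELISA: capture with PY-20 antiphosphotyrosine, detection with anti-PDGF-Ra and peroxidase secondary, read at 450 nm. Lysates came from G-292 osteosarcoma cells starved in 0.1% FBS, compound-treated 1 hr at 37° C, and stimulated with 50 ng/ml PDGF-AA for 5 min.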

The target of the next assay is T2, c-kit (Homo sapiens, UniProt P10721).
T2 construct: MO7e (human megakaryocytic leukemia cell line) which had been arrested for 20 hr; endogenous in cells; host or cells: MO7e human megakaryocytic leukemia cell line
The assay is described as follows: Inhibitory activity against c-kit autophosphorylation (MO7e cells, h-SCF). Format: cell-based. The conditions noted are these: for inhibition at 1 µM: Mo7e, figure within parentheses in −( ) or >1000( ), at 1000 nM; for IC50: MO7e cells, 50 ng/ml h-SCF, read-out: c-kit IC50. In a few lines:
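Phospho-c-kit ELISA: plate-bound PY-20 anti-phosphotyrosine captures lysate, anti-c-kit plus peroxidase-labelled secondary antibody detect, read at 450 nm. Lysates come from 20 hr-arrested MO7e cells given compound for 1 hr before a 5 min 50 ng/ml h-SCF stimulus.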

Bounds are passed on as bounds.

T1 sequence (P16234 24-1089): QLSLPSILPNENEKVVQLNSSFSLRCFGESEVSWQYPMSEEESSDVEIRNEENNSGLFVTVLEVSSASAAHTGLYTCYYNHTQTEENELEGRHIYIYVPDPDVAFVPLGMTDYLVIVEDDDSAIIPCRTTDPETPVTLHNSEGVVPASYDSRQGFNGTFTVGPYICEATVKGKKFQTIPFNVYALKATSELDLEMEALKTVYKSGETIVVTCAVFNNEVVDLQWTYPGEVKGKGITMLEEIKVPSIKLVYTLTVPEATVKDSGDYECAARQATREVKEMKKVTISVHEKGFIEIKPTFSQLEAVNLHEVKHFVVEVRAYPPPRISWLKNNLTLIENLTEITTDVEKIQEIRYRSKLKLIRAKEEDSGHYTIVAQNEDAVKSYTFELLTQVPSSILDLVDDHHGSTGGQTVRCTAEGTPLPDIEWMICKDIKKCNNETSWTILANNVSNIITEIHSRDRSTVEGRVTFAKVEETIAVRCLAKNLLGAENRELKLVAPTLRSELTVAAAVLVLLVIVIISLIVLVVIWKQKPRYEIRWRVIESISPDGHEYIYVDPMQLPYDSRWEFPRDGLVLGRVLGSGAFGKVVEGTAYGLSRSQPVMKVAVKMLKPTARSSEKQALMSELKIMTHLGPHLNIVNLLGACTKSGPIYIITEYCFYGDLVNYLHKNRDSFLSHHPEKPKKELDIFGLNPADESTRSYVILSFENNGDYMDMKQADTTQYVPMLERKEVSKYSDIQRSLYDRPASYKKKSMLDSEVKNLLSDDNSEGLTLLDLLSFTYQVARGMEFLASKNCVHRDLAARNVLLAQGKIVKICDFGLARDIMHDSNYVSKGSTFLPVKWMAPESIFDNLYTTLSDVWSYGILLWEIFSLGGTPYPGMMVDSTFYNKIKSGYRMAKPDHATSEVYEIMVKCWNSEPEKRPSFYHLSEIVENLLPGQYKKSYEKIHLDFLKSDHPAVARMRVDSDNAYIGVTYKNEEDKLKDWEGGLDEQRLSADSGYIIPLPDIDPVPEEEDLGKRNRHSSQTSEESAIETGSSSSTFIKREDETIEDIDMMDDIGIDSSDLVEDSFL
T2 sequence (P10721 26-976): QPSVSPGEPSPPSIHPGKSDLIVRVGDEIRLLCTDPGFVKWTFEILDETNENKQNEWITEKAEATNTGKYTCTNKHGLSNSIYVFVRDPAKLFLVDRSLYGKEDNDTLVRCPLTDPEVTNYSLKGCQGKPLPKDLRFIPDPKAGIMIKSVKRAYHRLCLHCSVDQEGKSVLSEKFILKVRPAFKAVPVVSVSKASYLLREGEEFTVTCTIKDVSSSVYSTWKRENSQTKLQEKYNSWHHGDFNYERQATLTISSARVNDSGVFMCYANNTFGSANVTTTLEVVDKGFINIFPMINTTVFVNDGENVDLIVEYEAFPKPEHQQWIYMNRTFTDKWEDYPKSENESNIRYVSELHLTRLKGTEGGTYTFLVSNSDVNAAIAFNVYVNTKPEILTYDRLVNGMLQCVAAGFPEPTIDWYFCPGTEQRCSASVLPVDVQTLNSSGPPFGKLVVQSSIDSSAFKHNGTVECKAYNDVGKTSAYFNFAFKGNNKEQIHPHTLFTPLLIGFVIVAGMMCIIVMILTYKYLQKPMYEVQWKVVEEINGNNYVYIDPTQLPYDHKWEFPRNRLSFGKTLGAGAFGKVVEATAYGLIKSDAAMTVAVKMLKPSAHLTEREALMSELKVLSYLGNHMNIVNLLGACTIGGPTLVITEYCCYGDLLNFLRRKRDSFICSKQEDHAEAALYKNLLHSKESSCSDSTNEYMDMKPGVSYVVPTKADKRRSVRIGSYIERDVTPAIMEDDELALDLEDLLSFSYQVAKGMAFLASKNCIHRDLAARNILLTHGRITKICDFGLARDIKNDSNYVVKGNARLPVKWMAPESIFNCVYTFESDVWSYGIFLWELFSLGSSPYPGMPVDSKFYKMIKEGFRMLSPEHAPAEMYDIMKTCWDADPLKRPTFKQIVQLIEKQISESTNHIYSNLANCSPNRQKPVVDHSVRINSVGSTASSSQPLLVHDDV

In the case of `COc1cc2ncnc(Oc3ccc(N(C)C(=O)OC4CCCCCC4)c(Cl)c3)c2cc1OC` [Example 482, Cycloheptyl N-{2-chloro-4-[(6,7-dimethoxy-4-quinazolinyl)oxy]phenyl}-N-methylcarbamate], the half-maximal inhibitory concentration (IC50) at PDGF-Ra is 24 nM. For the same compound, at c-kit, the inhibition at 1 µM amounted to 5%.
As for `COc1cc2nccc(Oc3ccc(N(C)C(=O)OCC4CCCCCC4)cc3)c2cc1OC` [Example 483, Cycloheptylmethyl N-{4-[(6,7-dimethoxy-4-quinolyl)oxy]phenyl}-N-methylcarbamate], the half-inhibitory concentration (IC50) was 20 nM on PDGF-Ra and under 30 nM at c-kit.
The like results for `COc1cc2ncnc(Oc3ccc(N(C)C(=O)OCC4CCCCCC4)cc3)c2cc1OC` [Example 484] were, in that order, 12 nM and 75 nM.
The corresponding values for `CCN(C(=O)OC1CCCCCC1)c1ccc(Oc2ncnc3cc(OC)c(OC)cc23)cc1Cl` [Example 489, Cycloheptyl N-{2-chloro-4-[(6,7-dimethoxy-4-quinazolinyl)oxy]phenyl}-N-ethylcarbamate] are 58 nM and 637 nM.
The corresponding values for `COc1ccccc1COC(=O)N(C)c1ccc(Oc2ncnc3cc(OC)c(OC)cc23)cc1` [Example 490, 2-Methoxybenzyl N-{4-[(6,7-dimethoxy-4-quinazolinyl)oxy]phenyl}-N-methylcarbamate] are 21 nM and 261 nM.
Regarding `COc1cc2ncnc(Oc3ccc(N(C)C(=O)OCc4ccccc4C)cc3)c2cc1OC` [Example 491, 2-Methylbenzyl N-{4-[(6,7-dimethoxy-4-quinazolinyl)oxy]phenyl}-N-methylcarbamate], the IC50 at PDGF-Ra stood at 24 nM; at c-kit it was 315 nM.
The corresponding values for `COc1cc2ncnc(Oc3ccc(N(C)C(=O)OCc4ccccc4Cl)cc3)c2cc1OC` [Example 492, 2-Chlorobenzyl N-{4-[(6,7-dimethoxy-4-quinazolinyl)oxy]phenyl}-N-methylcarbamate] are 20 nM and 321 nM.
The corresponding values for `COc1cc2ncnc(Oc3ccc(N(C)C(=O)OC4CCCCCC4)cc3)c2cc1OC` [Example 494, Cycloheptyl N-{4-[(6,7-dimethoxy-4-quinazolinyl)oxy]phenyl}-N-methylcarbamate] are 16 nM and 125 nM.
Regarding `C#CCC(CC)OC(=O)N(C)c1ccc(Oc2ccnc3cc(OC)c(OC)cc23)cc1` (stereo not shown) [Example 496, 1-Ethyl-3-butynyl N-{4-[(6,7-dimethoxy-4-quinolyl)oxy]phenyl}-N-methylcarbamate], at PDGF-Ra, the IC50 turned out to be 45 nM. On c-kit, the inhibition at 1 µM stood at 32%.
Turning to `COc1cc(Oc2ncnc3cc(OC)c(OC)cc23)ccc1NC(=O)OC1CCCCC1` [Example 497, Cyclohexyl N-{4-[(6,7-dimethoxy-4-quinazolinyl)oxy]-2-methoxyphenyl}carbamate], the half-inhibitory concentration (IC50) at PDGF-Ra is under 10 nM; at c-kit it was 82 nM.
The corresponding values for `COc1cc(Oc2ncnc3cc(OC)c(OC)cc23)ccc1NC(=O)OC1CCCCCC1` [Example 498, Cycloheptyl N-{4-[(6,7-dimethoxy-4-quinazolinyl)oxy]-2-methoxyphenyl}carbamate] are under 10 nM and 140 nM.
As for `COc1cc(Oc2ncnc3cc(OC)c(OC)cc23)ccc1NC(=O)OCc1ccccc1Cl` [Example 499, 2-Chlorobenzyl N-{4-[(6,7-dimethoxy-4-quinazolinyl)oxy]-2-methoxyphenyl}carbamate], the 50% inhibitory concentration (IC50) at PDGF-Ra is under 10 nM; at c-kit, 98 nM.
The corresponding values for `COc1ccccc1COC(=O)Nc1ccc(Oc2ncnc3cc(OC)c(OC)cc23)cc1OC` [Example 500, 2-Methoxybenzyl N-{4-[(6,7-dimethoxy-4-quinazolinyl)oxy]-2-methoxyphenyl}carbamate] are 14 nM and 199 nM.
As for `COc1cc(Oc2ncnc3cc(OC)c(OC)cc23)ccc1NC(=O)OCCc1ccccn1` [Example 501, 2-(2-Pyridyl)ethyl N-{4-[(6,7-dimethoxy-4-quinazolinyl)oxy]-2-methoxyphenyl}carbamate], the results for the concentration for half-maximal inhibition (IC50) at PDGF-Ra and at c-kit were 11 nM and 56 nM, respectively.

The record behind these values is patent US7135466B2 (Kirin Beer Kabushiki Kaisha, priority 1999, dated 2006).
